The structures appear in SMILES notation. “Also recorded” adds a separate entry of the source. Where a name gives a salt, the structure may show the parent alone. Some results are limits rather than exact numbers.

Experiment [1] relates to PfEMP1 surface expression, CS2-GFP parasites. As to the kind of experiment: PfEMP1 (VAR2CSA) surface display on infected erythrocytes by flow cytometry with PAM1.4. In kind it is cell-based, Plasmodium falciparum. To be noted: 15 µM 23 h or 50>15 µM. The procedure:
As 916 treatment has adverse affects on parasites after 24 h, a sublethal dosing regime was developed (see Figure S7) to maximize the inhibitor effect while ensuring parasites remained viable 24 h postinvasion when surface-exposed PfEMP1 was measured. Treatment with >15 µM for 23 h or with 50 µM for >12 h postinvasion prior to decreasing to 15 µM adversely affected parasite growth and was avoided.
To measure PfEMP1 display, highly synchronous ring-stage CS2-GFP parasites preferentially expressing VAR2CSA (see Plasmids, Parasites, and Antibody Production) were obtained by incubation of erythrocytes with viable merozoites for 15 min [47], and parasites were treated with 916, 025, or DMSO using the dosage regime above. […] Labeled cells were washed with 0.1% casein/PBS and analyzed on a FACSCalibur cytometer (Becton-Dickinson, USA). Fluorescence in channel FL1 was used to measure parasite-infected erythrocytes (GFP), and fluorescence in channel FL4 was used to measure bound PAM1.4 IgG antibodies (Alexa 633) for each sample. The geometric mean fluorescence of uninfected erythrocytes (treated with secondary and tertiary but not primary antibodies) was deducted from the geometric mean fluorescence of infected erythrocytes using >100,000 cells per condition. […]
On the technique in general: In flow cytometry, cells or beads pass a laser one at a time.

Experiment [2] concerns Human Foreskin Fibroblasts (HFF). As to the kind of experiment: Toxicity against Human Foreskin Fibroblasts. To be noted: Fibroblast. The format is cell-based.
Experiment [3] concerns the target PMV in P. falciparum–infected erythrocytes (Plasmodium falciparum, UniProt Q8I6Z5). The experiment can be described thus: PEXEL processing of GFP reporters in parasites by immunoblot. In kind it is cell-based. To be noted: for PEXEL processing of KAHRP-GFP in parasites, in words / PEXEL processing of PfEMP3-GFP in parasites, in words: 5 h treatment, immunoblot; for PEXEL processing of KAHRP-GFP in parasites, in words: 20 and 50 µM; for PEXEL processing of PfEMP3-GFP in parasites, in words: up to 50 µM. The procedure: To assess whether 916 could inhibit PMV in P. falciparum–infected erythrocytes, parasites expressing the PEXEL protein P. falciparum erythrocyte membrane protein 3 (PfEMP3) fused to green fluorescent protein (GFP) were treated with increasing concentrations of inhibitor, and PEXEL processing was evaluated by immunoblot. […] A GFP-only band, representing degraded chimera in the food vacuole, was also observed at ∼26 kDa (Figure 3A).
(§1) Trophozoites (30–34 h) expressing PfEMP3-GFP, KAHRP-GFP, or SERA5s-GFP were magnet-purified (Miltenyi Biotech), incubated with inhibitors in 400 µl total volume at 37°C for 1–5 h, treated with 0.09% saponin containing inhibitor, and washed pellets were solubilized in Laemmli's buffer, boiled for 3 min, and frozen at −20°C. Proteins were separated by SDS-PAGE, transferred to nitrocellulose and blocked in 10% skim milk/PBS-T, and probed with rat α-HA (Roche 3F10; 1∶1,000), mouse α-GFP (Roche; 1∶1,000), rabbit α-Aldolase (1∶1,000), rabbit α-HSP70 (1∶4,000), rabbit α-PfPMV (1∶1,000), or rabbit α-Hyp8 (1∶500) primary antibodies followed by horseradish peroxidase-conjugated secondary antibodies (Silenius) and detected by enhanced chemiluminescence (Amersham).

The subject of experiment [4] is signal peptidase. As to the kind of experiment: Signal peptide cleavage of SERA5s-GFP in parasites by immunoblot. To be noted: for Signal peptide cleavage of SERA5s-GFP, in words: 20 µM for 5 h. The format is cell-based, Plasmodium falciparum. On the procedure: This protein contains a signal peptide but lacks a PEXEL and is efficiently secreted to the parasitophorous vacuole (Figure S3B).
as §1
A general note: In western blotting, separated proteins are transferred to a membrane and probed.

The target of experiment [5] is PfPMV (Plasmodium falciparum, UniProt Q8I6Z5). The experiment can be described thus: PEXEL cleavage assay with immunopurified PfPMVHA and fluorogenic KAHRP PEXEL peptide. In kind it is biochemical. On the procedure:
To investigate PvPMVHA activity, we affinity purified it, as well as the PfPMVHA control, using anti-HA agarose, as previously described,[18]. […] The proteins were incubated with a fluorogenic peptide of nine amino acids that contained the PEXEL sequence from knob-associated histidine-rich protein (KAHRP), and efficient processing was observed by both enzymes (Figure 1E). Cleavage of KAHRP by PfPMVHA was previously shown to occur after Leu (RTL↓) by mass spectrometry, and this position was also confirmed for PvPMVHA (Figure S2B–E). […] In contrast, no processing was observed when the PEXEL Arg and Leu residues were mutated to Ala (ATAAQ), consistent with the substrate specificity of PfPMV (Figure 1E). To verify that processing was due to HA-tagged PMV rather than other co-precipitated proteases, we expressed in P. falciparum a mutant of PvPMVHA or PfPMVHA [13], where one or both catalytic Asp residues were mutated to Ala (see Figure 1A,B). Following affinity purification, the mutant enzymes were incubated with KAHRP PEXEL peptides, but no processing was observed (Figure 1E; blue, white), confirming that the PEXEL-dependent cleavage activity observed for each protease was attributable only to HA-tagged PMV.
Each compound was incubated with PfPMVHA in the presence of KAHRP PEXEL peptides.
PMV-agarose was prepared by adding α-HA-agarose (Sapphire Bioscience) to parasite lysates, prepared by sonication in 1% Triton X-100/PBS, for 1 h before extensive washing in same,[13]. PEXEL cleavage assays (20 µl total volume) consisted of 0.2 µl PMV-agarose in digest buffer (25 mM Tris, 25 mM MES, pH 6.4) with 1.5 µM FRET peptide substrate (DABCYL-[…]-E-EDANS, DABCYL-[…]-E-EDANS, LifeTein; DABCYL-[…]-E-EDANS, DABCYL-[…]-E-EDANS; Mimotopes) ± inhibitor. Samples were excited at 340 nm and fluorescence emission measured at 492 nm using an Envision fluorescence plate reader (Perkin-Elmer) heated to 37°C for 150 min. Samples were shaken between measurements. For determination of the peptide cleavage position by PvPMVHA, the fluorogenic peptide (DABCYL-[…]-E-EDANS), representing the wild-type KAHRP PEXEL sequence, was incubated with and without PvPMVHA at 37°C for 48 h. Products of the incubation were detected by a molecular formula algorithm using an Agilent 6200 TOF/6500 series mass spectrometer.

Experiment [6] deals with HEpG2 cells. As to the kind of experiment: Toxicity against human HEpG2 cells. The format is cell-based. To be noted: toxicity against human cell line.
For experiment [7], the system named is cytoadherence of infected erythrocytes to CSA. The experiment can be described thus: Static adhesion of infected erythrocytes to chondroitin sulfate A (CSA). The format is cell-based, Plasmodium falciparum. To be noted: static conditions. The procedure:
Adhesion assays were performed as described previously,[33]. Briefly, CSA (Sigma) was spotted at 50 µg/ml in triplicate into petri dishes, incubated overnight at 4°C, and blocked in 1% casein/PBS for 2 h. Inhibitor-treated erythrocytes were added to CSA-coated dishes and incubated for 45 min at 37°C. Dishes were washed four times with 5 ml warm RPMI-HEPES, fixed in 2% paraformaldehyde for 2 h, stained with 10% Giemsa for 15 min, and the number of adherent erythrocytes per mm^2 quantified by light microscopy counts. Assays were performed in triplicate.

Sequence of PMV in P. falciparum–infected erythrocytes (Q8I6Z5 whole entry, the tested form may be a part): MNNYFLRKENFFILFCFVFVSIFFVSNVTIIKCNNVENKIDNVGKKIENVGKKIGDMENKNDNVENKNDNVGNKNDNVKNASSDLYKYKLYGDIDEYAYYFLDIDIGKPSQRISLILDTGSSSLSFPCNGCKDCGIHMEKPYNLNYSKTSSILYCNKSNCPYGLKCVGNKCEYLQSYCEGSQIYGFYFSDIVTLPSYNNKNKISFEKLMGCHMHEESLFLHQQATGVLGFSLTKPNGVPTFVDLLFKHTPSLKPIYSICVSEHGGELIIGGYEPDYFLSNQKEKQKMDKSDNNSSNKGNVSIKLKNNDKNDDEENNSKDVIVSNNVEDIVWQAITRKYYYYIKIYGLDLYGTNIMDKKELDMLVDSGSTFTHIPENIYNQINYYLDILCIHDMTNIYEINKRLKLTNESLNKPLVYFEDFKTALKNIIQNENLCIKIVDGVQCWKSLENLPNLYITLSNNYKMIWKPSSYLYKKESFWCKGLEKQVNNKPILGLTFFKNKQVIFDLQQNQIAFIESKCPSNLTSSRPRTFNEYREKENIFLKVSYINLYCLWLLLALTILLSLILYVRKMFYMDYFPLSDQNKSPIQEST
Sequence of PfPMV (Q8I6Z5 34-590): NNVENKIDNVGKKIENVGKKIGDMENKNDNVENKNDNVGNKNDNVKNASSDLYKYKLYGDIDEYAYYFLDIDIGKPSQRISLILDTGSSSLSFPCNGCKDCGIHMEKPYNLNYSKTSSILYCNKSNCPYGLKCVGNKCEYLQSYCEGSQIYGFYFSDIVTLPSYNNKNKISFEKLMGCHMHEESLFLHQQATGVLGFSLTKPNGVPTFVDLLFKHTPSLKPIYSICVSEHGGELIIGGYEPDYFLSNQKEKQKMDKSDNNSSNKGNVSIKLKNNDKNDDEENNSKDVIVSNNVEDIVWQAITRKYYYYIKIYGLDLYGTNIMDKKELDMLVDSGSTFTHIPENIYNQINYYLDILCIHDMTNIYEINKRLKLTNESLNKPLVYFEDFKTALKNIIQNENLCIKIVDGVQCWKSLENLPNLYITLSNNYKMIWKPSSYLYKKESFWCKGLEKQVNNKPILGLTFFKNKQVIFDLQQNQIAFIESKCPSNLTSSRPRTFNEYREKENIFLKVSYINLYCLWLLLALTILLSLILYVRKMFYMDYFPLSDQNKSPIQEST

With `CC[C@H](C)[C@H](NC(=O)[C@@H](NC(=O)[C@H](CCCNC(=N)N)NS(=O)(=O)Cc1ccccc1)C(C)C)[C@@H](O)CC(=O)NCCc1ccccc1` [compound 025, PhCH2SO2Arg-Val-AHMHpA-NH(CH2)2Ph . TFA], in experiment [1], the “Effect on PfEMP1 surface expression, in words” value was “no effect”. For the same molecule, the IC50 in experiment [2] is greater than 100 µM; in experiment [5] (IC50 PfPMV, PfPMVHA), 1.11 µM; in experiment [6], greater than 100 µM. Besides, the “PEXEL processing of KAHRP-GFP in parasites, in words” value in experiment [3] is reported as “no effect”. Also, the “PEXEL processing of PfEMP3-GFP in parasites, in words” value in experiment [3] is “no effect”. The “Signal peptide cleavage of SERA5s-GFP, in words” value in experiment [4] is recorded as “no defect”. The “Effect on PMV or signal peptidase activity in parasites, in words” value in experiment [4] (concentrations up to 50 µM) is recorded as “no affect”. In addition, the “Effect on adhesion to CSA, in words” value in experiment [7] is recorded as “no effect”.
For `CC(C)C[C@H](NC(=O)[C@@H](NC(=O)[C@H](CCCNC(=N)N)NS(=O)(=O)Cc1ccccc1)C(C)C)[C@@H](O)CC(=O)NCCc1ccccc1` [compound 916, PhCH2SO2-Arg(NH2)-Val-Sta-NH(CH2)2Ph .TFA], the “Decrease of PfEMP1 surface expression” value in experiment [1] (24 h postinvasion) is on record as “up to 55%”. Further, the IC50 in experiment [2] was greater than 100 µM; in experiment [5] (IC50 PfPMVHA, PEXEL cleavage), 0.02 µM; in experiment [6], greater than 100 µM. Besides, the “Inhibition of PfEMP3-GFP cleavage after 2 to 5 h of treatment” value in experiment [3] (2 to 5 h) is “uncleaved PfEMP3-GFP increased”. The “Inhibition of PfEMP3-GFP cleavage after 1 h of treatment” value in experiment [3] (1 h) was “No effect”. The “PEXEL processing of KAHRP-GFP in parasites, in words” value in experiment [3] was “accumulation of both uncleaved (black arrow) and signal peptide-cleaved (red arrow) protein”. Besides, in experiment [3], the “PEXEL processing of PfEMP3-GFP in parasites, in words” value was “dose-dependent increase in unprocessed PfEMP3-GFP”. The inhibition at 20 µM in experiment [3] (read-out: Rescue of PfEMP3-GFP cleavage inhibition in inhibitor-free medium) is roughly 50%. Further, the “Signal peptide cleavage of SERA5s-GFP, in words” value in experiment [4] was “no defect; also recorded: did not impair processing of the signal peptide”. Also, the “Reduction of adhesion to CSA” value in experiment [7] (compared to DMSO) is roughly 50%.

One may read the IC50 as the point on the concentration scale where inhibition reaches its midpoint. The low end stands for inhibition by little substance, the high end for a need for much substance. As usually defined, the inhibition is the relative decrease from the control value, in per cent.

The values above are taken from article PMC4077696 (PLoS Biology, 2014).
